Data: PubChem BioAssay AID2060347 (Molecular Pharmacology Branch, DTP, NCI, 2025)

Tested on: 817829-284-R-J1-PDC spheroids with HUVEC/MSC, viability
Experiment: Anticancer human tumor 817829-284-R-J1-PDC patient-derived colon adenocarcinoma cell line growth inhibition [TAK]
Settings: for IC50: curve of first compound; for viability, T/C: stronger effect = lower value
How it was run: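 Tumor cells were grown as spheroids with HUVEC and hMSC (60:25:15) and treated with targeted agents combined with TAK-243 or ipatasertib. Drugs were tested in half-log steps down from near the clinical Cmax, or from 10 microM where Cmax was unknown.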

[1] = second compound 0.3 µM, first compound 0.316 µM
[2] = second compound 0.3 µM, first compound 1 µM
[3] = second compound 0.3 µM, first compound 3.16 µM
[4] = second compound 0.3 µM, first compound 10 µM
[5] = second compound 0.949 µM, first compound 0.316 µM
[6] = second compound 0.949 µM, first compound 1 µM
[7] = second compound 0.949 µM, first compound 3.16 µM
[8] = second compound 0.949 µM, first compound 10 µM
[9] = second compound 3 µM, first compound 0.316 µM
[10] = second compound 3 µM, first compound 1 µM
[11] = second compound 3 µM, first compound 3.16 µM
[12] = second compound 3 µM, first compound 10 µM
[13] = second compound 9.49 µM, first compound 0.316 µM
[14] = second compound 9.49 µM, first compound 1 µM
[15] = second compound 9.49 µM, first compound 3.16 µM
[16] = second compound 9.49 µM, first compound 10 µM
[17] = second compound 30 µM, first compound 0.316 µM
[18] = second compound 30 µM, first compound 1 µM
[19] = second compound 30 µM, first compound 3.16 µM
[20] = second compound 30 µM, first compound 10 µM

For CCCS(=O)(=O)Nc1ccc(F)c(C(=O)c2c[nH]c3ncc(-c4ccc(Cl)cc4)cc23)c1F + CC(C)NCC(C(=O)N1CCN(c2ncnc3c2C(C)CC3O)CC1)c1ccc(Cl)cc1, the IC50 (second compound 0.3 µM) was 1900 nM, the IC50 (second compound 0.949 µM) was < 316 nM and the IC50 (second compound 3 µM) was < 316 nM. The IC50 (second compound 9.49 µM) was < 316 nM, the IC50 (second compound 30 µM) was < 316 nM and the viability, T/C [1] was 78.3%. The viability, T/C [2] was 66.9%, the viability, T/C [3] was 38% and the viability, T/C [4] was 12.7%. For the same compound, the viability, T/C (second compound 0.3 µM, first compound 31.6 µM) was 20%, the viability, T/C (second compound 0.3 µM, first compound 100 µM) was 46.3% and the viability, T/C [5] was 29.6%. It also gave a viability, T/C [6] of 26.4%, a viability, T/C [7] of 20.5% and a viability, T/C [8] of 10.8%. It also gave a viability, T/C (second compound 0.949 µM, first compound 31.6 µM) of 5.67%, a viability, T/C (second compound 0.949 µM, first compound 100 µM) of 17.3% and a viability, T/C [9] of 18.5%. The viability, T/C [10] was 14.3%, the viability, T/C [11] was 11.6% and the viability, T/C [12] was 4.96%. The viability, T/C (second compound 3 µM, first compound 31.6 µM) was 1.71%, the viability, T/C (second compound 3 µM, first compound 100 µM) was 12.3% and the viability, T/C [13] was 9.5%. It also gave a viability, T/C [14] of 7.83%, a viability, T/C [15] of 7.41% and a viability, T/C [16] of 2.4%. For the same compound, the viability, T/C (second compound 9.49 µM, first compound 31.6 µM) was 0.86%, the viability, T/C (second compound 9.49 µM, first compound 100 µM) was 7.59% and the viability, T/C [17] was 5.18%. The viability, T/C [18] was 5.41%, the viability, T/C [19] was 2.16% and the viability, T/C [20] was 0.51%. It also gave a viability, T/C (second compound 30 µM, first compound 31.6 µM) of 0.2% and a viability, T/C (second compound 30 µM, first compound 100 µM) of 1.89%.

With CC(C)(C)c1nc(-c2cccc(NS(=O)(=O)c3c(F)cccc3F)c2F)c(-c2ccnc(N)n2)s1 + CC(C)NCC(C(=O)N1CCN(c2ncnc3c2C(C)CC3O)CC1)c1ccc(Cl)cc1 the IC50 (second compound 0.3 µM) was 110 nM, the IC50 (second compound 0.949 µM) was < 31.6 nM and the IC50 (second compound 3 µM) was < 31.6 nM. The IC50 (second compound 9.49 µM) was < 31.6 nM, the IC50 (second compound 30 µM) was < 31.6 nM and the viability, T/C (second compound 0.3 µM, first compound 0.0316 µM) was 77.1%. It also gave a viability, T/C (second compound 0.3 µM, first compound 0.1 µM) of 52.1%, a viability, T/C [1] of 27.6% and a viability, T/C [2] of 18%. The viability, T/C [3] was 20%, the viability, T/C [4] was 40.6% and the viability, T/C (second compound 0.949 µM, first compound 0.0316 µM) was 27.6%. The viability, T/C (second compound 0.949 µM, first compound 0.1 µM) was 31.9%, the viability, T/C [5] was 22.4% and the viability, T/C [6] was 15.3%. The viability, T/C [7] was 15.6%, the viability, T/C [8] was 20.1% and the viability, T/C (second compound 3 µM, first compound 0.0316 µM) was 15.9%. For the same compound, the viability, T/C (second compound 3 µM, first compound 0.1 µM) was 16.9%, the viability, T/C [9] was 13.4% and the viability, T/C [10] was 11.1%. It also gave a viability, T/C [11] of 11%, a viability, T/C [12] of 13.7% and a viability, T/C (second compound 9.49 µM, first compound 0.0316 µM) of 9.35%. The viability, T/C (second compound 9.49 µM, first compound 0.1 µM) was 10.3%, the viability, T/C [13] was 9.8% and the viability, T/C [14] was 7.09%. For the same compound, the viability, T/C [15] was 6.36%, the viability, T/C [16] was 9.46% and the viability, T/C (second compound 30 µM, first compound 0.0316 µM) was 5.5%. The viability, T/C (second compound 30 µM, first compound 0.1 µM) was 5.14%, the viability, T/C [17] was 5.38% and the viability, T/C [18] was 3.29%. It also gave a viability, T/C [19] of 3.24% and a viability, T/C [20] of 4.85%.

Cn1cnc2c(F)c(Nc3ccc(Br)cc3Cl)c(C(=O)NOCCO)cc21 + CC(C)NCC(C(=O)N1CCN(c2ncnc3c2C(C)CC3O)CC1)c1ccc(Cl)cc1 was tested, and the IC50 (second compound 0.3 µM) was 11.5 nM, the IC50 (second compound 0.949 µM) was < 9.49 nM and the IC50 (second compound 3 µM) was < 9.49 nM. For the same compound, the IC50 (second compound 9.49 µM) was < 9.49 nM, the IC50 (second compound 30 µM) was < 9.49 nM and the viability, T/C (second compound 0.3 µM, first compound 0.00949 µM) was 53.8%. For the same compound, the viability, T/C (second compound 0.3 µM, first compound 0.03 µM) was 36.5%, the viability, T/C (second compound 0.3 µM, first compound 0.0949 µM) was 40.4% and the viability, T/C (second compound 0.3 µM, first compound 0.3 µM) was 23.4%. The viability, T/C (second compound 0.3 µM, first compound 0.949 µM) was 17.4%, the viability, T/C (second compound 0.3 µM, first compound 3 µM) was 9.69% and the viability, T/C (second compound 0.949 µM, first compound 0.00949 µM) was 17.6%. For the same compound, the viability, T/C (second compound 0.949 µM, first compound 0.03 µM) was 15.9%, the viability, T/C (second compound 0.949 µM, first compound 0.0949 µM) was 13.8% and the viability, T/C (second compound 0.949 µM, first compound 0.3 µM) was 12.9%. For the same compound, the viability, T/C (second compound 0.949 µM, first compound 0.949 µM) was 12.6%, the viability, T/C (second compound 0.949 µM, first compound 3 µM) was 10.6% and the viability, T/C (second compound 3 µM, first compound 0.00949 µM) was 9.45%. It also gave a viability, T/C (second compound 3 µM, first compound 0.03 µM) of 10.2%, a viability, T/C (second compound 3 µM, first compound 0.0949 µM) of 8.2% and a viability, T/C (second compound 3 µM, first compound 0.3 µM) of 9.01%. The viability, T/C (second compound 3 µM, first compound 0.949 µM) was 8.23%, the viability, T/C (second compound 3 µM, first compound 3 µM) was 6.8% and the viability, T/C (second compound 9.49 µM, first compound 0.00949 µM) was 6.1%. The viability, T/C (second compound 9.49 µM, first compound 0.03 µM) was 6.4%, the viability, T/C (second compound 9.49 µM, first compound 0.0949 µM) was 5.55% and the viability, T/C (second compound 9.49 µM, first compound 0.3 µM) was 5.64%. For the same compound, the viability, T/C (second compound 9.49 µM, first compound 0.949 µM) was 4.81%, the viability, T/C (second compound 9.49 µM, first compound 3 µM) was 4.12% and the viability, T/C (second compound 30 µM, first compound 0.00949 µM) was 4.35%. For the same compound, the viability, T/C (second compound 30 µM, first compound 0.03 µM) was 3.94%, the viability, T/C (second compound 30 µM, first compound 0.0949 µM) was 3.58% and the viability, T/C (second compound 30 µM, first compound 0.3 µM) was 3.91%. The viability, T/C (second compound 30 µM, first compound 0.949 µM) was 2.71% and the viability, T/C (second compound 30 µM, first compound 3 µM) was 2.38%.
